In patent US20230181532A1, “GRANULES FOR 3D PRINTING TECHNOLOGY” (BOARD OF REGENTS, THE UNIVERSITY OF TEXAS SYSTEM, priority 2020, published 2023):

Legend:
Format in all cases: physicochemical
[1] = Flow through orifice powder flow test
From the text: A United States Pharmacopoeia (USP) compliant flowability tester, with funnel attachments (BEP2, Copley Scientific Limited, Nottingham, UK) was used for the flow-through orifice study. The purpose of this test was to stimulate the flow in a hopper or other mass transfer situations (Taylor et al., 2000). The funnel was placed 40 mm above the collecting beaker, and the beaker was placed on a measuring scale. The nozzle was fixed onto the funnel and the shutter mechanism was used to prevent any premature flow from the funnel. 100 g of the sample powder was transferred to the funnel and the test was started 30 s after the transfer (this facilitated floccule formation). The weight was recorded for the samples with respect to the time in triplicates (n=3) for each nozzle diameter (10, 15, and 25 mm) and samples (PA 12 (reference), granules, and drug). Time versus weight curves were constructed for the processed granules and the properties were compared with PA 12.

[2] = Angle of repose (AOR)
From the text: A 100 mm circular test platform together with a digital height gauge having a range of 0-300 mm and an accuracy of 0.03 mm was used (BEP2, Copley Scientific Limited. Nottingham, UK). […] The surplus powder was collected in a tray below the test platform. The nozzle (10 mm nozzle for the angle of repose) of the funnel was placed 75 mm above the test platform, and the nozzle was secured using the shutter mechanism. 100 g of the sample (drug and granules) were placed in the funnel, and the shutter was moved gently but rapidly to allow the powder to flow. The powder formed a conical on the test platform and started overflowing. […] The height of the powder cone was measured using the digital height gauge and the diameter of the cone was 100 (diameter of the platform was 100 mm). Equation 2 was used to calculate the angle of repose.

[3] = In vitro release testing, pH shift dissolution (USP type II paddle); conditions: pH 2, 2 h
Protocol: The in vitro release testing was performed using a pH shift protocol to simulate physiological conditions and contrary to the USP dissolution medium i.e., pH 7.2 phosphate buffer. […] Moreover, because of its pKa and hydrophobicity, and the amorphous nature of the drug in the samples of interest, it was important to expose it to acidic conditions before exposing it to relatively basic conditions. […] If the drug exists in its amorphous form in the formulation, it is crucial to study its stability in the acidic pH as in the physiological environment the formulation will be exposed to it first.
For this pH-shift dissolution test, the above-mentioned samples (n=3) were introduced into 750 mL of HCl-KCl buffer (pH 2, 0.1 M, hydrochloric acid-potassium chloride buffer) for 2 h using a 900 mL vessel. 150 mL of phosphate buffer (pH6.8, 0.1 M) was then introduced to each vessel shifting the pH from 2 to 6.8, with a final volume of 900 mL. […] The dissolution of the samples was tested at the final pH of 6.8 for an additional 2 h. The test was conducted using a Paddle type assembly (USP type II). […] Acetonitrile was used to dilute (2-fold) the drawn samples and the previously described method of analysis was used to quantify the API in the samples.

flow through orifice observation [1]: no flow throughout the test | flow classification as per the AOR reference table [2]: very poor | angle of repose θ value ([2]; 10 mm nozzle, 100 g sample, n=3): 58.2±0.06 °
SMILES: COc1ccc2c(c1)c(CC(=O)O)c(C)n2C(=O)c1ccc(Cl)cc1 [IND, Indomethacin]
dissolution behaviour in acidic environment [3]: did not show any improvement in their solubility
